In PMC3991565 (Science (New York, N.Y.), 2014):

Columns and labels:
human mGlu1 receptor = human mGlu1 receptor (Homo sapiens, UniProt Q13255); test: FITM binding affinity at mGlu1
mGlu5 = mGlu5 (Homo sapiens, UniProt P41594); test: FITM selectivity for mGlu1 over mGlu5; assay type: cell-based; settings: mGlu1 versus mGlu5, Fig. S12
[1] = molecular target: wild-type (WT) full-length human mGlu1 receptor (Homo sapiens, UniProt Q13255); test: FITM-mediated antagonism of glutamate at wild-type full-length receptor; assay type: cell-based; settings: WT full-length human mGlu1, versus glutamate
Sequence of wild-type (WT) full-length human mGlu1 receptor (Q13255 19-1194): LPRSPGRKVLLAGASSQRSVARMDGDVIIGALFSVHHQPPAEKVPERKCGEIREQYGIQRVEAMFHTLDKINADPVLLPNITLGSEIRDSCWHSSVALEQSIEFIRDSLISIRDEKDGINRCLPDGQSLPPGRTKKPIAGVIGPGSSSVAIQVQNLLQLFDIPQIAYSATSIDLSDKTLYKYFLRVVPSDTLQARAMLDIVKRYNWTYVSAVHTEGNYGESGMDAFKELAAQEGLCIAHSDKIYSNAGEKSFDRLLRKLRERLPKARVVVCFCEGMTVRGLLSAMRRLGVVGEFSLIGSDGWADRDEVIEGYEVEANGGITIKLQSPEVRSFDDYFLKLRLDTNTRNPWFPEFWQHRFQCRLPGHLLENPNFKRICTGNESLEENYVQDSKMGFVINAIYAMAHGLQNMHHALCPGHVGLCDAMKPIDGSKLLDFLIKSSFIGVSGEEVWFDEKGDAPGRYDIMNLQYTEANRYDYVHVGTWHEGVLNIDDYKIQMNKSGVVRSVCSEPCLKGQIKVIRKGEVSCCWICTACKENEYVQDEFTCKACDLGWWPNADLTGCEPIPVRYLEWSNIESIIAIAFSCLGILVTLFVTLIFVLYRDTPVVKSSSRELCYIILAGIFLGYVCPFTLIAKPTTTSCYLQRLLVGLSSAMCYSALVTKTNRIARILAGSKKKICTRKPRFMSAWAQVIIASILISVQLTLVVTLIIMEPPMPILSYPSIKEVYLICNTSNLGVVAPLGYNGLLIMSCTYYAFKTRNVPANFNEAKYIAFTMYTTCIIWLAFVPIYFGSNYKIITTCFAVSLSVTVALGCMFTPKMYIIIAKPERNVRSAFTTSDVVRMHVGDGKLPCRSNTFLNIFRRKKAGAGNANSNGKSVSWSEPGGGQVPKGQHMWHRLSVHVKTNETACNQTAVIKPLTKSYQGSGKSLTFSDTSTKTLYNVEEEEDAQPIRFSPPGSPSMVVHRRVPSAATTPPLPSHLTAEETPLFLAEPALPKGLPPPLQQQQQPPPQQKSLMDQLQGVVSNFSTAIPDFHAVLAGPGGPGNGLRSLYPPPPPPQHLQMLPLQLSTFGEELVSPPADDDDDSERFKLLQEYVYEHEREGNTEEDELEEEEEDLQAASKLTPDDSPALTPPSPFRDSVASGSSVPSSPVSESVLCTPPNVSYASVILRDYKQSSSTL

mGlu1 [2] = settings: mGlu1 NAM potency of FITM and analogs used for docking; cited from earlier work
mGlu1 [3] = test: potency; assay type: cell-based; settings: relative to FITM; ref 9 values

Sequence of mGlu5 (P41594 21-1212): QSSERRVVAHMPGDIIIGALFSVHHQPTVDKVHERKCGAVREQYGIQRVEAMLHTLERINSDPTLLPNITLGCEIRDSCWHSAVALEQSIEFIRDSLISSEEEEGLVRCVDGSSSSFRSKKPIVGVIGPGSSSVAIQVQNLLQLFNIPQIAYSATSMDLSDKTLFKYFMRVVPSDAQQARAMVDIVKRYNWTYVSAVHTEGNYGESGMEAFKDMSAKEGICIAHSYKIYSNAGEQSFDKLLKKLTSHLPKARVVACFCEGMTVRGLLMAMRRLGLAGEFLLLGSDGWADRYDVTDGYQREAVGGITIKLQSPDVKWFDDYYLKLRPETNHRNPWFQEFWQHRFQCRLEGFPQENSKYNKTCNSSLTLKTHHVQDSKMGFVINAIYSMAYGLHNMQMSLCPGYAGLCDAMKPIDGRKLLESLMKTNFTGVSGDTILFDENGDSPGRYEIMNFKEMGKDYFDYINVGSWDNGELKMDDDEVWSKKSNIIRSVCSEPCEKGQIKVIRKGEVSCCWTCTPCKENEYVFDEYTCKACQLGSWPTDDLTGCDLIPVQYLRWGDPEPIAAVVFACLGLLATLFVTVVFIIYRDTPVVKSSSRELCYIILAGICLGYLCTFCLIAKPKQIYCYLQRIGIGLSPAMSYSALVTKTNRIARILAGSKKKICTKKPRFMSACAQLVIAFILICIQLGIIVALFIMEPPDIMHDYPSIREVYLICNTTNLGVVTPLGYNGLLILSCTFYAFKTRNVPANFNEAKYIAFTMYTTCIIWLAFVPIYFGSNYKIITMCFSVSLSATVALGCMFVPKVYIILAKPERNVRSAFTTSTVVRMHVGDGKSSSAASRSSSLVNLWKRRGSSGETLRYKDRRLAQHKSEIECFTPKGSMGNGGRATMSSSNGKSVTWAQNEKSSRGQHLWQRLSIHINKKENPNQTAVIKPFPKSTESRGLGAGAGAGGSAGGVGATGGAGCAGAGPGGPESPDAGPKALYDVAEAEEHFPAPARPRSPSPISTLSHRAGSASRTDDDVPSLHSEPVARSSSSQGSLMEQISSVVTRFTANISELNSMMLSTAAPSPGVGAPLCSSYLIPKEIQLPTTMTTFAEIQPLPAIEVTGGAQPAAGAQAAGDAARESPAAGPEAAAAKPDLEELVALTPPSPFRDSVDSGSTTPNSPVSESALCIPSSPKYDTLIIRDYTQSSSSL
Sequence of human mGlu1 receptor (Q13255 581-860): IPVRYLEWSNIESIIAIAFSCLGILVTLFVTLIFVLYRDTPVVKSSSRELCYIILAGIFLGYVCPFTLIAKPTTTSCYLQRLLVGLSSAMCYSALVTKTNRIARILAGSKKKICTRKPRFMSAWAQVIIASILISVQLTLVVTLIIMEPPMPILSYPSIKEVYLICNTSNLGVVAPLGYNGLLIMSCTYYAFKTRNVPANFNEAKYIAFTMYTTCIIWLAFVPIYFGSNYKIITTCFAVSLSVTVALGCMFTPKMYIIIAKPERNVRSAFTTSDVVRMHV

CC(C)Nc1cc(-c2csc(N(C)C(=O)c3ccc(F)cc3)n2)ncn1 [FITM, 4-fluoro-N-(4-(6-(isopropylamino)pyrimidin-4-yl)thiazol-2-yl)-N-methylbenzamide]
Ki (human mGlu1 receptor): 2.5 nM | subtype selectivity (mGlu5): selectivity for mGlu1 over mGlu5 | mode of allosteric modulation [1]: full NAM | IC50 (mGlu1 [2]): 5 nM

CC(C)N(C)c1cc(-c2csc(N(C)C(=O)c3ccc(F)cc3)n2)ncn1 [compound 28]
fold lower potency than FITM (mGlu1 [3]): approximately 10 fold | IC50 (mGlu1 [2]): 77 nM
